Experimental data taken from PubChem BioAssay AID248 (DTP/NCI, 2004).
Values joined by “and” are separate entries in the source; they are usually repeats but may differ in a detail not shown here. Identical values can stand only once. Toxic doses and inconclusive results are not listed.

Tested on: L1210 leukemia ip in BDF1 mice, survival T/C
Assay: NCI In Vivo Anticancer Drug Screen. Data for tumor model L1210 Leukemia (intraperitoneal) in B6D2F1 (BDF1) mice
Details: higher = longer survival
How it was run: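 Transplanted-tumor mice were given test agent; controls received vehicle only. Survival readings from the two groups were divided (treated over control).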

[1] = endpoint: mean survival time, dose: 100.0 mg/kg/injection, schedule: Q01DX009 (ip), vehicle: Klucel (hydroxypropylcellulose) (HPC)
[2] = endpoint: mean survival time, dose: 200.0 mg/kg/injection, schedule: Q01DX009 (ip), vehicle: Klucel (hydroxypropylcellulose) (HPC)
[3] = endpoint: mean survival time, dose: 400.0 mg/kg/injection, schedule: Q01DX009 (ip), vehicle: Klucel (hydroxypropylcellulose) (HPC)
[4] = endpoint: mean survival time, dose: 100.0 mg/kg/injection, schedule: Q01DX009 (ip), vehicle: saline
[5] = endpoint: mean survival time, dose: 200.0 mg/kg/injection, schedule: Q01DX009 (ip), vehicle: saline
[6] = endpoint: mean survival time, dose: 400.0 mg/kg/injection, schedule: Q01DX009 (ip), vehicle: saline
[7] = endpoint: mean survival time, dose: 100.0 mg/kg/injection, schedule: Q04DX003 (ip), vehicle: Klucel (hydroxypropylcellulose) (HPC)
[8] = endpoint: mean survival time, dose: 200.0 mg/kg/injection, schedule: Q04DX003 (ip), vehicle: Klucel (hydroxypropylcellulose) (HPC)
[9] = endpoint: mean survival time, dose: 400.0 mg/kg/injection, schedule: Q04DX003 (ip), vehicle: Klucel (hydroxypropylcellulose) (HPC)
[10] = endpoint: mean survival time, dose: 100.0 mg/kg/injection, schedule: Q01DX009 (ip), vehicle: saline with Tween-80
[11] = endpoint: mean survival time, dose: 200.0 mg/kg/injection, schedule: Q01DX009 (ip), vehicle: saline with Tween-80
[12] = endpoint: mean survival time, dose: 100.0 mg/kg/injection, schedule: Q04DX003 (ip), vehicle: saline with Tween-80
[13] = endpoint: mean survival time, dose: 200.0 mg/kg/injection, schedule: Q04DX003 (ip), vehicle: saline with Tween-80
[14] = endpoint: mean survival time, dose: 400.0 mg/kg/injection, schedule: Q04DX003 (ip), vehicle: saline with Tween-80
[15] = endpoint: mean survival time, dose: 100.0 mg/kg/injection, schedule: Q04DX002 (ip), vehicle: saline with Tween-80
[16] = endpoint: mean survival time, dose: 400.0 mg/kg/injection, schedule: Q01DX009 (ip), vehicle: saline with Tween-80

For `NC(N)=Nc1ccc(/C=C2\C=Cc3ccccc32)cc1`, the T/C (endpoint: mean survival time, dose: 200.0 mg/kg/injection, schedule: Q01DX001 (ip), vehicle: carboxymethylcellulose (CMC)) was 101 % of control.

With `COc1ccccc1NS(=O)(=O)c1ccc(Cl)cc1` the T/C [1] was 103 % of control, the T/C [2] was 112 % of control and the T/C [3] was 103 % of control.

For `c1ccc2c(c1)CNNC2`, the T/C (endpoint: mean survival time, dose: 25.0 mg/kg/injection, schedule: Q01DX009 (ip), vehicle: saline) was 97 % of control, the T/C (endpoint: mean survival time, dose: 50.0 mg/kg/injection, schedule: Q01DX009 (ip), vehicle: saline) was 96 % of control and the T/C [4] was 102 % of control. The T/C [5] was 103 % of control and the T/C [6] was 105 % of control.

With `O=S(=O)(Nc1ccc2ccccc2c1)c1cccc2cccnc12` the T/C [7] was 98 % of control, the T/C [8] was 93 % of control and the T/C [9] was 95 % of control.

With `CCCCC#CC(=O)OCCCCC` the T/C [10] was 105 % of control and the T/C [11] was 91 % of control.

For `CCOC(=O)C1=C(O)c2c(sc(C)c2C)N(S(=O)(=O)c2ccc(C)cc2)CC1`, the T/C (endpoint: mean survival time, dose: 50.0 mg/kg/injection, schedule: Q01DX009 (ip), vehicle: saline with Tween-80) was 93 % of control, the T/C (endpoint: mean survival time, dose: 50.0 mg/kg/injection, schedule: Q04DX003 (ip), vehicle: saline with Tween-80) was 97 % of control and the T/C [10] was 90 % of control. The T/C [12] was 101 % of control, the T/C [11] was 96 % of control and the T/C [13] was 93 % of control. The T/C [14] was 98 % of control.

For `CCC(C)NC(=O)NC` (centres undefined), the T/C [1] was 100 % of control, the T/C [2] was 97 % of control and the T/C [3] was 101 % of control.

For `Cc1cc(N)on1`, the T/C [4] was 97 % of control, the T/C (endpoint: mean survival time, dose: 100.0 mg/kg/injection, schedule: Q04DX003 (ip), vehicle: saline) was 96 % of control and the T/C [5] was 106 % of control. The T/C (endpoint: mean survival time, dose: 200.0 mg/kg/injection, schedule: Q04DX003 (ip), vehicle: saline) was 101 % of control, the T/C [6] was 88 % of control and the T/C (endpoint: mean survival time, dose: 400.0 mg/kg/injection, schedule: Q04DX003 (ip), vehicle: saline) was 123 % of control.

With `N=C(N(O)C(=O)Nc1ccccc1)C(Cl)(Cl)Cl` the T/C (endpoint: mean survival time, dose: 25.0 mg/kg/injection, schedule: Q01DX009 (ip), vehicle: Klucel (hydroxypropylcellulose) (HPC)) was 98 % of control, the T/C (endpoint: mean survival time, dose: 50.0 mg/kg/injection, schedule: Q01DX009 (ip), vehicle: Klucel (hydroxypropylcellulose) (HPC)) was 100 % of control and the T/C [1] was 104 % of control and 105 % of control.

In the case of `Cc1cc(N(CCCl)CCCl)ccc1C=Nc1cccc2ncccc12`, the T/C (endpoint: mean survival time, dose: 100.0 mg/kg/injection, schedule: Q01DX001 (ip), vehicle: other) is reported as 95 % of control, the T/C (endpoint: mean survival time, dose: 200.0 mg/kg/injection, schedule: Q01DX001 (ip), vehicle: other) is reported as 97 % of control and the T/C (endpoint: mean survival time, dose: 400.0 mg/kg/injection, schedule: Q01DX001 (ip), vehicle: other) is reported as 93 % of control.

With `CCSC(SCC)C(OC(C)=O)C(OC(C)=O)C(OC(C)=O)C(C)OC(C)=O` (centres undefined) the T/C (endpoint: mean survival time, dose: 100.0 mg/kg/injection, schedule: Q01DX001 (ip), vehicle: saline with Tween-80) was 99 % of control, the T/C [10] was 95 % of control and 89 % of control and the T/C [15] was 93 % of control and 105 % of control. The T/C [12] was 107 % of control, the T/C (endpoint: mean survival time, dose: 200.0 mg/kg/injection, schedule: Q01DX001 (ip), vehicle: saline with Tween-80) was 103 % of control and the T/C [11] was 98 % of control and 100 % of control. For the same molecule, the T/C (endpoint: mean survival time, dose: 200.0 mg/kg/injection, schedule: Q04DX002 (ip), vehicle: saline with Tween-80) was 94 % of control and 92 % of control, the T/C [13] was 91 % of control and the T/C (endpoint: mean survival time, dose: 400.0 mg/kg/injection, schedule: Q01DX001 (ip), vehicle: saline with Tween-80) was 101 % of control. The T/C [16] was 87 % of control and 88 % of control, the T/C (endpoint: mean survival time, dose: 400.0 mg/kg/injection, schedule: Q04DX002 (ip), vehicle: saline with Tween-80) was 100 % of control and 87 % of control and the T/C [14] was 93 % of control.

For `CN(C)C(=O)Nc1cccc(OC(=O)NCCCl)c1`, the T/C [12] was 96 % of control, the T/C [13] was 94 % of control and the T/C [14] was 94 % of control.

With `O=C(O)CCC1C2CC(C1C(=O)O)C1C3CCC(C3)C21` (centres undefined) the T/C [7] was 100 % of control, the T/C [8] was 95 % of control and the T/C [9] was 95 % of control.

In the case of `CN=C(c1ccc(NC(=O)c2ccc(C(=O)Nc3ccc(C(=NC)N4CCOCC4)cc3)c(Cl)c2)cc1)N1CCOCC1`, the T/C (endpoint: mean survival time, dose: 0.94 mg/kg/injection, schedule: Q01DX Z (ip), vehicle: carboxymethylcellulose (CMC)) is reported as 104 % of control, the T/C (endpoint: mean survival time, dose: 1.87 mg/kg/injection, schedule: Q01DX Z (ip), vehicle: carboxymethylcellulose (CMC)) is reported as 101 % of control and the T/C (endpoint: mean survival time, dose: 3.75 mg/kg/injection, schedule: Q01DX Z (ip), vehicle: carboxymethylcellulose (CMC)) is reported as 98 % of control. For the same molecule, the T/C (endpoint: mean survival time, dose: 7.5 mg/kg/injection, schedule: Q01DX Z (ip), vehicle: carboxymethylcellulose (CMC)) was 87 % of control, the T/C (endpoint: mean survival time, dose: 15.0 mg/kg/injection, schedule: Q01DX Z (ip), vehicle: carboxymethylcellulose (CMC)) was 91 % of control and the T/C (endpoint: mean survival time, dose: 30.0 mg/kg/injection, schedule: Q01DX Z (ip), vehicle: carboxymethylcellulose (CMC)) was 91 % of control. The T/C (endpoint: mean survival time, dose: 60.0 mg/kg/injection, schedule: Q01DX Z (ip), vehicle: carboxymethylcellulose (CMC)) was 91 % of control.

In the case of `CC(CO)(CO)C1CCCCC1`, the T/C (endpoint: mean survival time, dose: 25.0 mg/kg/injection, schedule: Q04DX002 (ip), vehicle: saline with Tween-80) is reported as 93 % of control, the T/C (endpoint: mean survival time, dose: 50.0 mg/kg/injection, schedule: Q04DX002 (ip), vehicle: saline with Tween-80) is reported as 101 % of control and the T/C [15] is reported as 97 % of control.

With `CC1OC(OC2CC(O)C3(CO)C4C(O)CC5(C)C(C6=CC(=O)OC6)CCC5(O)C4CCC3(O)C2)C(O)C(O)C1O` (centres undefined) the T/C (endpoint: mean survival time, dose: 0.5 mg/kg/injection, schedule: Q01DX009 (ip), vehicle: saline) was 100 % of control, the T/C (endpoint: mean survival time, dose: 1.0 mg/kg/injection, schedule: Q01DX009 (ip), vehicle: saline) was 121 % of control and the T/C (endpoint: mean survival time, dose: 1.25 mg/kg/injection, schedule: Q01DX001 (ip), vehicle: saline) was 100 % of control. For the same molecule, the T/C (endpoint: mean survival time, dose: 2.0 mg/kg/injection, schedule: Q01DX009 (ip), vehicle: saline) was 113 % of control, the T/C (endpoint: mean survival time, dose: 2.5 mg/kg/injection, schedule: Q01DX001 (ip), vehicle: saline) was 104 % of control and the T/C (endpoint: mean survival time, dose: 4.0 mg/kg/injection, schedule: Q01DX009 (ip), vehicle: saline) was 106 % of control. The T/C (endpoint: mean survival time, dose: 5.0 mg/kg/injection, schedule: Q01DX001 (ip), vehicle: saline) was 101 % of control, the T/C (endpoint: mean survival time, dose: 6.25 mg/kg/injection, schedule: Q01DX001 (ip), vehicle: saline) was 105 % of control and the T/C (endpoint: mean survival time, dose: 12.5 mg/kg/injection, schedule: Q01DX001 (ip), vehicle: saline) was 106 % of control. For the same molecule, the T/C (endpoint: median survival time, dose: 1.0 mg/kg/injection, schedule: Q01DX005 (ip), vehicle: water) was 105 % of control, the T/C (endpoint: median survival time, dose: 2.0 mg/kg/injection, schedule: Q01DX005 (ip), vehicle: water) was 104 % of control and the T/C (endpoint: median survival time, dose: 4.0 mg/kg/injection, schedule: Q01DX005 (ip), vehicle: water) was 109 % of control.

For `CC(/C=N/N/C(N)=N\N)=N\N/C(N)=N/N`, the T/C (endpoint: mean survival time, dose: 15.0 mg/kg/injection, schedule: Q01DX Z (ip), vehicle: methylcellulose (MC)) was 105 % of control, the T/C (endpoint: mean survival time, dose: 30.0 mg/kg/injection, schedule: Q01DX Z (ip), vehicle: methylcellulose (MC)) was 103 % of control and the T/C (endpoint: mean survival time, dose: 60.0 mg/kg/injection, schedule: Q01DX Z (ip), vehicle: methylcellulose (MC)) was 98 % of control. For the same molecule, the T/C (endpoint: mean survival time, dose: 120.0 mg/kg/injection, schedule: Q01DX Z (ip), vehicle: methylcellulose (MC)) was 104 % of control and the T/C (endpoint: mean survival time, dose: 240.0 mg/kg/injection, schedule: Q01DX Z (ip), vehicle: methylcellulose (MC)) was 98 % of control.

With `CCCCCCCCC(O)CCCCCCCCC(=O)O` (centres undefined) the T/C [10] was 101 % of control, the T/C [11] was 97 % of control and the T/C [16] was 86 % of control.

With `CC1CCCC(NC(=O)N(CCCl)N=O)C1` (centres undefined) the T/C (endpoint: mean survival time, dose: 8.0 mg/kg/injection, schedule: Q01DX001 (ip), vehicle: other) was 109 % of control, the T/C (endpoint: mean survival time, dose: 27.0 mg/kg/injection, schedule: Q01DX001 (ip), vehicle: other) was 307 % of control and the T/C (endpoint: mean survival time, dose: 31.0 mg/kg/injection, schedule: Q01DX001 (ip), vehicle: other) was 170 % of control. For the same molecule, the T/C (endpoint: mean survival time, dose: 35.0 mg/kg/injection, schedule: Q01DX001 (ip), vehicle: other) was 190 % of control, the T/C (endpoint: mean survival time, dose: 42.0 mg/kg/injection, schedule: Q01DX001 (ip), vehicle: other) was 348 % of control and the T/C (endpoint: mean survival time, dose: 62.0 mg/kg/injection, schedule: Q01DX001 (ip), vehicle: other) was 275 % of control and 361 % of control. The T/C (endpoint: mean survival time, dose: 71.0 mg/kg/injection, schedule: Q01DX001 (ip), vehicle: other) was 301 % of control, the T/C (endpoint: mean survival time, dose: 93.0 mg/kg/injection, schedule: Q01DX001 (ip), vehicle: other) was 307 % of control and the T/C (endpoint: mean survival time, dose: 125.0 mg/kg/injection, schedule: Q01DX001 (ip), vehicle: other) was 86 % of control. The T/C (endpoint: mean survival time, dose: 286.0 mg/kg/injection, schedule: Q01DX001 (ip), vehicle: other) was 88 % of control.
